According to paper PMC10167756 (Journal of medicinal chemistry, 2023):
Structures can show the parent of a compound that is named as a salt.

Target: T1, Spns2 (Spinster homolog 2) (Mus musculus, UniProt Q91VM4)
T1 sequence (Q91VM4 1-549): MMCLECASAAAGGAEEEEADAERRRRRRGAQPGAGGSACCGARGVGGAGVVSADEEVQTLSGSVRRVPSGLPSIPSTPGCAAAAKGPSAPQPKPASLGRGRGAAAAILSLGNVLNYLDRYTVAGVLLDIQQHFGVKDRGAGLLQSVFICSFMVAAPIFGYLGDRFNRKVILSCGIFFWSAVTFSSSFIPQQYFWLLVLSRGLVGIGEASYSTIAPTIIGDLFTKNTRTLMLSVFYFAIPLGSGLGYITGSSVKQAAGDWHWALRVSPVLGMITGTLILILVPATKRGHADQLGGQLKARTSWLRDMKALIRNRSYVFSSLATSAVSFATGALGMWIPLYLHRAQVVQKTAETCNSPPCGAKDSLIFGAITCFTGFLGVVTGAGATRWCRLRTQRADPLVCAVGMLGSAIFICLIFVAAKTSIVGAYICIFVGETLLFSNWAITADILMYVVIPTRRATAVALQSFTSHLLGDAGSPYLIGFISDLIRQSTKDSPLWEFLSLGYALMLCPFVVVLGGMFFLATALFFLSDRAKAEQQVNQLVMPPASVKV
Assay: S1P release assay in mouse Spns2-transfected HeLa cells, % inhibition at […]
Type: cell-based

## CCCCCCCCCc1ccc2oc(NC[C@H]3CCNC3)nc2c1 [35p, (S)-5-nonyl-N-(pyrrolidin-3-ylmethyl)benzo[d]oxazol-2-amine hydrochloride]
  inhibition at 0.3 µM: 50 ± 4%
